# Substitutions are numbered along the chain they refer to. Entries after “also recorded” stand apart in the source; their conditions may differ. Where a SMILES comes first, the peptide text is derived from it. The star is where a group is joined. FITC = O=C1OC2(c3ccc(O)cc3Oc3cc(O)ccc32)c2ccc(NC(=S)*)cc21; βAla = NCCC(=O)O
# Experiments:
# [1] = test system: three different rhomboid proteases; assay: Manual 384-well compound screen in proteoliposomes; format: biochemical; conditions: 1 hour at 37° C., no compound pre-incubation
# Description: FIG. 12. Assay Evaluation in Manual Compound Screens. […] B. We assayed 3 different rhomboid proteases independently in hand-pipetted 384-well screens against a custom-assembled library of protease inhibitors, combinatorial compounds, and membrane enzyme inhibitors (all in DMSO). Assays were conducted for 1 hour at 37° C. and fluorescence intensity was read every 2 minutes. Graphed are the 60 minute values, with the last (rightmost) 7 wells being the isocoumarin inhibition controls.
# An important consideration is assay suitability for HTS, which we evaluated by manually screening a diverse panel of class-specific protease inhibitors (natural products, sulphonyl fluorides, hydroxamate-based metalloprotease inhibitors, vinyl sulfones, isocoumarins, chloromethyl ketones, proteasomal inhibitors, aspartyl protease inhibitors, cysteine protease inhibitors), a combinatorial library of peptide diphenyl-phosphonates, and over a dozen lipid enzyme inhibitors/drugs (some of which are known to affect other intramembrane proteases). We hand-assembled this library of 111 compounds because it represents likely candidates for real rhomboid inhibitors on the one hand, and on the other poses challenges for assay performance because most are chemically-reactive (warhead) molecules. […]
# E. coli GlpG = biological target: T1, E. coli GlpG (Escherichia coli, UniProt P09391); assay: Inducible reconstitution and real-time proteolysis assay in proteoliposomes; format: biochemical
# T1 construct: GST (cleaved yes); made in house; host or cells: E. coli C43 (DE3)
# Description: (§1) 30 μg of E. coli liposomes were mixed with 50 mM NaAcetate pH 4.0, 150 mM NaCl, 0.05 to 500 pmoles of rhomboid enzyme, and 20 to 1600 pmoles of FITC-substrate. This co-reconstitution mix was diluted 20-fold with 12.5 mM NaAcetate pH 4.0, 37.5 mM NaCl to reduce detergent below its critical micelle concentration and promote reconstitution. Proteoliposomes were collected by ultracentrifugation at 600,000 g for 20 minutes in an Optima MAX-XP ultracentrifuge (Beckman). […] Fluorescence was monitored every minute using monochromators set to wavelengths of 485±20 nm (excitation) and 528±20 nm (emission). Alternatively, time points were quenched with equal volumes of 2× Tricine SDS-sample buffer, resolved on 16% Tricine gels (Life Technologies), and imaged with a blue laser and fluorescein emission filters on a Typhoon Imager (GE Healthcare). APP+Spi7-Flag and HA-EcGlpG were co-reconstituted as above, resolved by SDS-PAGE, detected by 2-color anti-Flag and anti-HA western analysis, and imaged with an Odyssey infrared scanner (LiCor Biosciences).
# All data were analyzed and graphed using the R language and environment. Initial rates were extracted from real-time curves between 4 and 14 minutes using the slope (m) in a linear model: y=mx+b. Initial rates versus substrate concentration of reconstituted reactions were modeled using the Hill-modified Michaelis Menten equation: v0=(Vmax*[S0]^h)/(Km^h+[S0]^h). […]
# To establish controlled conditions for a Michaelis-Menten kinetic system, we lowered GlpG levels to 4 pmoles while varying substrate from 20 to 1600 pmoles and co-reconstituted both into 200 nm proteoliposomes comprised of E. coli lipids to preserve its physiological environment as much as possible (FIG. 9A). […] Finally, FITC-TatA reconstituted in both orientations in approximately equal proportions, as quantified by reacting single engineered cysteines with membrane-impermeable dyes (FIG. 3A). […]
# [2] = biological target: T2, catalytically inactive TMR-GlpG (C104A+W196TMR+H254A) (Escherichia coli, UniProt P09391, C104A/H254A/W196C); assay: FRET analysis of protease-substrate affinity in membranes; format: binding; conditions: in proteoliposomes
# T2 construct: His (N); TMR (tetramethylrhodamine-5-maleimide) dye on the side chain of Cys196; made in house
# T2 sequence (P09391 1-276 C104A/W196C/H254A): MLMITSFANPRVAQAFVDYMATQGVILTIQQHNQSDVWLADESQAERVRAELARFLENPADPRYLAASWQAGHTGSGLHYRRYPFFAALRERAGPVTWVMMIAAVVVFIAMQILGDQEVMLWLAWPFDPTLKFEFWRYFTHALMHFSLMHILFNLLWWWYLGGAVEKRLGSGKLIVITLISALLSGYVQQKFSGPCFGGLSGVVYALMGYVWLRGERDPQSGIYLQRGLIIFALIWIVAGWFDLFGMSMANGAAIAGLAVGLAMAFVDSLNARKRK
# Description: Purified N-terminally His-tagged EcGlpG H254A+C104A+W196C protein was labeled at the single cysteine residue with the FRET acceptor tetramethylrhodamine-5-maleimide (TMR) (Life Technologies). Reconstitutions into E. coli liposomes were performed as described above, except that 30 pmoles of TMR-labeled protein was mixed with 25-800 pmoles of the FITC-TatA ligand. Following reconstitution, the samples were incubated at 37° C. in a Synergy H4 Hybrid plate reader. Fluorescence was measured with excitation at 485 nm and emission from 510-600 nm in 5 nm intervals. The FRET interaction was calculated at the 580 nm emission wavelength by subtracting the TMR-labeled GlpG protein alone and the FITC-TatA alone samples from the sample containing both macromolecules.
# HA-EcGlpG = biological target: T3, HA-EcGlpG (Escherichia coli, UniProt P09391); assay: Proteolysis assay in detergent micelles; format: biochemical; conditions: faster in detergent
# T3 construct: GST (cleaved yes); made in house; host or cells: E. coli C43 (DE3)
# T3 sequence (P09391 1-276): T2 sequence (P09391 1-276 C104A/W196C/H254A) with A104C, C196W, A254H
# Description: Cleavage reactions of APP+Spi7-Flag were performed as described previously and imaged with an Odyssey infrared scanner (LiCor Biosciences) (Baker and Urban, 2012; Baker et al., 2007). […] Reactions were quenched and analyzed on 16% tricine gels as above. Actual substrate concentrations were calibrated using FITC-TatA standards analyzed in parallel.
# [3] = biological target: T4, inactive EcGlpG mutants (His-EcGlpG C104A+H254A; HA-EcGlpG S201A+H254A) (Escherichia coli, UniProt P09391, C104A/H254A); format: binding; conditions: co-precipitation
# T4 construct: made in house
# Description: (§2) 2.5 μM His-tagged EcGlpG C104A+H254A with 70 μM FITC-TatA was incubated with pre-equilibrated Ni^2+-NTA resin (Qiagen) for 3 hours at room temperature. The resin was washed, and bound proteins were eluted with SDS-sample buffer for 30 minutes. FITC-TatA was detected as above using a 16% Tricine gel and a Typhoon Imager. His-EcGlpG C104A+H254A was detected by western blot with the mouse anti-penta-His antibody (Qiagen), and imaged with an Odyssey infrared scanner (LiCor Biosciences).
# (§3) Two Superdex 200 PC 3.2/30 high-resolution gel filtration columns (GE Healthcare) were connected in tandem to a ProStar 410 HPLC system (Agilent/Varian), and equilibrated with 9.5 μM FITC-TatA in 2 mM phosphate buffer pH 7.4, 25 mM Tris pH 7.4, 120 mM NaCl, 0.15% Sarkosyl, 0.1% DDM, 1 mM DTT. 20 μM HA-EcGlpG S201A+H254A was preincubated with 9.5 μM FITC-TatA, and 50 μL was injected using an Autosampler 410 onto the columns at a flow rate of 0.05 mL/minute. Elution was monitored by absorbance at all wavelengths between 200 to 600 nm simultaneously using a PDA 330 detector. The FITC-TatA peak was quantified relative to known FITC-TatA concentration standards that were run on the columns equilibrated with 9.5 μM FITC alone in buffer. Conventional gel filtration was conducted under similar conditions, except the columns were equilibrated with buffer lacking FITC-TatA.
# [4] = biological target: inactive EcGlpG mutants (His-EcGlpG C104A+H254A; HA-EcGlpG S201A+H254A); format: binding, Escherichia coli; conditions: gel filtration and co-precipitation, non-equilibrium; read-out: Kd (low affinity)
# Description: as §2, §3
# HA-PsAarA = biological target: T5, HA-PsAarA (Providencia stuartii, UniProt P46116); assay: Real-time kinetics of substrate variants in proteoliposomes; format: biochemical; conditions: in words
# T5 construct: GST (cleaved yes); made in house; host or cells: E. coli C43 (DE3)
# T5 sequence (P46116 whole entry, looked up): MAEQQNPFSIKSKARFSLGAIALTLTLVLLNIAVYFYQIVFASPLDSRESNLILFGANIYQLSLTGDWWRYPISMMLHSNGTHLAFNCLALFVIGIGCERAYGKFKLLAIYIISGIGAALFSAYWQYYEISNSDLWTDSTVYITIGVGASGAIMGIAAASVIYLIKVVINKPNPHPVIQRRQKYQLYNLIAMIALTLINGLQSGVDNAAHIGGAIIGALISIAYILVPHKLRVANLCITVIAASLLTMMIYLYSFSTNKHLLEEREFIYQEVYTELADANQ
# Description: as §1
# All data were analyzed and graphed using the R language and environment. Initial rates were extracted from real-time curves between 4 and 14 minutes using the slope (m) in a linear model: y=mx+b. […]
# EcGlpG = EcGlpG (Escherichia coli, UniProt P09391); conditions: 37° C. for 3 hours
# Description: Rhomboid protein in 50 mM Tris pH 7.4, 150 mM NaCl, 0.1% DDM was incubated with either 10% DMSO only or carrying […] JLK6 at 37° C. for 3 hours, purified using a C4 ZipTip, and analyzed by mass spectrometry as described previously (Pierrat et al., 2011).
# T1 sequence (P09391 whole entry): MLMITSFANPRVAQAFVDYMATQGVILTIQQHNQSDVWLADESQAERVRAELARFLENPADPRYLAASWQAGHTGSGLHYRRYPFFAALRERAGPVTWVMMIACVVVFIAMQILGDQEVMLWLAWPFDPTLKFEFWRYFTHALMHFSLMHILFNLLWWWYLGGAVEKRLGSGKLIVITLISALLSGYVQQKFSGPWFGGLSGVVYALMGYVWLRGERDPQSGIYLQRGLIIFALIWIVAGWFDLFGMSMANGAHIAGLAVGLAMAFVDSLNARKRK
# EcGlpG, sequence (P09391 whole entry): as above
# T4 sequence (P09391 whole entry C104A/H254A): as the sequence (P09391 whole entry) above, with C104A, H254A counted along it
molecule,measurement,setting,value
O=c1occc2ccccc12 [isocoumarin],inhibition in screen,[1],obvious evidence of inhibition of all three rhomboid proteases
CC[C@H](C)[C@H](NC(=O)[C@H](CC(C)C)NC(=O)[C@@H](NC(=O)[C@@H](NC(=O)[C@H](CC(C)C)NC(=O)[C@H](CC(C)C)NC(=O)[C@H](C)NC(=O)[C@@H](NC(=O)[C@@H](NC(=O)[C@@H](NC(=O)[C@H](CC(C)C)NC(=O)[C@H](CCC(N)=O)NC(=O)[C@H](Cc1c[nH]c2ccccc12)NC(=O)[C@@H]1CCCN1C(=O)[C@H](CO)NC(=O)CNC(=O)[C@H](Cc1ccccc1)NC(=O)[C@H](C)NC(=O)[C@H](C)NC(=O)[C@@H](NC(=O)[C@H](C)NC(=O)[C@@H](NC(=O)[C@@H](NC(=O)[C@H](CO)NC(=O)[C@H](CCC(=O)O)NC(=O)[C@H](CCSC)NC(=O)CCNC(=S)Nc1ccc2c(c1)C(=O)OC21c2ccc(O)cc2Oc2cc(O)ccc21)[C@@H](C)O)[C@@H](C)CC)[C@@H](C)O)[C@@H](C)CC)[C@@H](C)CC)[C@@H](C)CC)[C@@H](C)CC)[C@@H](C)CC)C(=O)N[C@@H](Cc1ccccc1)C(=O)NCC(=O)N[C@H](C(=O)N[C@@H](CCCCN)C(=O)N[C@@H](CCCCN)C(=O)N[C@@H](CC(C)C)C(=O)N[C@@H](CCCNC(=N)N)C(N)=O)[C@@H](C)O [FITC-TatA] ({FITC-βAla}-MESTIATAAFGSPWQLIIIALLIILIFGTKKLR-NH2),KM,"E. coli GlpG; proteoliposomes of E. coli lipids, relative to phospholipid",0.14±0.02 mole percent
same,kcat,"E. coli GlpG; proteoliposomes, enzyme saturated with substrate",0.0063 ± 0.00021 s⁻¹
same,apparent Kd,[2],0.08±0.026 mole percent
same,kcat in detergent relative to proteoliposomes,HA-EcGlpG,~6.5 fold
same,FITC-TatA eluting with His-EcGlpG,[3],< 0.1%
same,Kd,[4],> 800 µM
"Spitz: Drosophila signaling molecule Spitz residues 135-168 of 186, FITC-labelled substrate",kcat and KM relative to TatA,HA-PsAarA,lower kcat without any significant change in KM
"COc1oc(=O)c2cc(N)ccc2c1Cl [JLK6, reference compound]",effect on fluorescence signal and cleavage product of FITC-TatA cleavage,"E. coli GlpG; proteoliposomes, 37° C., pretreatment with inhibitor",blocked generation of the fluorescence signal and cleavage product; also recorded: abrogated signal to background
same,mass shift of enzyme after incubation with inhibitor,EcGlpG,complete mass shift
